Data reported in ChEMBL document CHEMBL1201862, “PubChem BioAssay data set” (2004).
Activity calls are given as the source filed them.

How the values were obtained:
[1] = NIH-3T3 fibroblast cytotoxicity, dose response, cytotoxicity control, cell-based, fluorescence, Alamar Blue, secondary assay (AID 2327); assay type: functional;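 further: NIH-3T3 mouse fibroblasts cultured with fluconazole at 8 µg/mL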
[2] = C. albicans growth with fluconazole, confirmation, fluorescence, retest (AID 2467); assay type: functional, cell-based
[3] = target: Serine/threonine-protein phosphatase (Candida dubliniensis (strain CD36 / CBS 7987 / NCPF 3949 / NRRLY-17841) (Yeast), UniProt B9W6M3); test: calcineurin pathway inhibitors in yeast reporter, dose response, S. cerevisiae, CDRE-lacZ, luminescence, secondary (AID 2388); assay type: functional, cell-based;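 further: yeast reporter cells carrying a calcineurin-responsive lacZ construct stimulated with calcium chloride; luminescent beta-galactosidase reporter signal in whole cells rather than isolated phosphatase activity; potency for inhibition where a drop in reporter signal means calcineurin blockade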
[4] = target: ATP-dependent molecular chaperone HSP82 (Candida albicans (strain WO-1) (Yeast), UniProt C4YTQ8); test: loss of DOC-induced GRE-beta-galactosidase reporter signal, dose response, Hsp90 inhibitor project, S. cerevisiae, luminescence (AID 2400); assay type: functional, cell-based;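 further: beta-galactosidase luminescence from glucocorticoid response element reporter as proxy for Hsp90 function; inhibitor potency where signal loss means Hsp90 inhibition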
[5] = target: T1, Voltage-gated inwardly rectifying potassium channel KCNH2 (Homo sapiens, UniProt Q12809);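 further: confirmatory quantitative high-throughput screen measuring inhibition of hERG channel activity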
Candida albicans [6] = test: growth inhibition of azole-resistant C. albicans, dose response, CaCi-8 strain, Alamar Blue, dry powder, set 3 (AID 488905); assay type: functional, organism-based
Candida albicans [7] = test: reversal of fluconazole resistance in C. albicans, dose response, CaCi-2 strain, Alamar Blue, dry powder, set 3 (AID 488907); assay type: functional, organism-based
[8] = target: T1, Voltage-gated inwardly rectifying potassium channel KCNH2; conditions: Potency
[9] = target: Acyl-homoserine lactone acylase PvdQ (Pseudomonas aeruginosa (strain LESB58), UniProt Q9I194); test: P. aeruginosa PvdQ acylase inhibitors, dose response, biochemical, fluorescence, plate reader and imaging, cherry-picks (AID 493231)
HeLa = test: HeLa cell cytotoxicity, dose response, cytotoxicity control, 48 h, plate reader, cherry-picks (AID 504942); assay type: functional, cell-based; conditions: Homo sapiens
[10] = inhibitors of firefly luciferase expression or activity, dose response, H4 neuroglioma cells, luminescence (AID 1990); assay type: functional, cell-based
[11] = luciferase reporter signal reduction – luminescence, H4-C neuroglioblastoma cells, dose response (AID 2458); assay type: functional, cell-based;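 further: H4 neuroglioblastoma cells stably carrying a luciferase reporter gene fusion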
[12] = target: T2, Luciferin 4-monooxygenase (Photinus pyralis, UniProt P08659); test: Counter Screen for Luciferase-based Assay Positives. [Related pubchem assays: 620, 618, 411 ]
HEK293 [13] = test: PMA/Ionomycin induced NF-kB luciferase assay in 293- NF-kB-Luc stable cells. [Related pubchem assays: 1299, 1270, 1295, 1375, 1287, 1281, 1293, 1291, 1289, 1280, 465, 1364, 1282, 1372, 1365, 1370, 1367, 1366, 1269, 1373, 1292, 1290, 1302, 1371, 1283, 1271, 1294, 1374, 1368, 1369 ]; assay type: functional, cell-based; conditions: Homo sapiens
[14] = target: T2, Luciferin 4-monooxygenase; test: In vitro luciferase assay using purified luciferase. [Related pubchem assays: 1299, 1270, 1295, 1375, 1287, 1281, 1293, 1291, 1289, 1280, 465, 1364, 1282, 1372, 1365, 1370, 1367, 1366, 1266, 1373, 1292, 1290, 1302, 1371, 1283, 1271, 1294, 1374, 1368, 1369 ]
cells = assay type: functional, cell-based
[15] = inhibitors of SNCA 5'UTR-driven reporter translation, confirmation, H4 neuroglioma cells, luminescence (AID 1988); assay type: functional, cell-based
[16] = Luminescence-based counterscreen assay for KLF5 inhibitors: dose response cell-based high throughput screening assay to identify cytotoxic compounds using the IEC-6 intestinal epithelial cell line. [Related pubchem assays: 1700 (Primary screen.), 1834 (Confirmation screen.), 1858 (Summary AID.), 1905 (Counterscreen.)]; assay type: functional
HT-1080 = test: cytotoxicity in HT1080 fibrosarcoma cells, cell-based, fluorescence readout (AID 620); assay type: functional; conditions: Homo sapiens
HEK293 [17] = test: Cytotoxicity assay in HEK293 cells. [Related pubchem assays (depositor defined):AID1266, AID1269, AID1270, AID1271, AID1280, AID1281, AID1282, AID1283, AID1287, AID1289, AID1290, AID1291, AID1292, AID1293, AID1294, AID1295, AID1299, AID1302, AID1364, AID1365, AID1366, AID1367, AID1369, AID1370, AID1371, AID1372, AID1373, AID1374, AID1375, AID1384 …; assay type: functional, cell-based; conditions: Homo sapiens
[18] = inhibitors of SNCA 5'UTR-driven translation, confirmation, luminescence, H4 neuroglioblastoma cells, dose confirmation (AID 2454); assay type: functional, cell-based;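 further: H4 neuroglioblastoma cells carrying an alpha-synuclein 5'UTR luciferase reporter; potency for inhibition of the luciferase signal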
HEK293 [19] = test: TNF Induced NF-kB Luciferase in 293-NF-kB-Luc Stable Cells. [Related pubchem assays: 1266, 1299, 1269, 1373, 1292, 1290, 1302, 1371, 1283, 1270, 1295, 1271, 1375, 1294, 1374, 1281, 1293, 1291, 1289, 1280, 465, 1368, 1364, 1282, 1372, 1365, 1369, 1370, 1367, 1366 ]; assay type: functional, cell-based; conditions: Homo sapiens
[20] = cytotoxicity in HEK-293T cells, dose response, cytotoxicity control for BCR NF-kB inhibitor project, luminescence, B-cell screen hits (AID 489021); assay type: functional, cell-based;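 further: HEK-293T cells carrying an NF-kB luciferase reporter; cells exposed to compound for about 14 hours before viability readout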
HEK293 [21] = test: inhibitors of LMP1-driven NF-kB reporter, dose response, cell-based, HEK293, luciferase, cherry-pick (AID 588343); assay type: functional; conditions: Homo sapiens
HEK293 [22] = test: cytotoxicity in HEK293T NF-kB-Luc cells, SAR follow-up, cytotoxicity control for NF-kB activator project, cell-based, resazurin fluorescence (AID 493251); assay type: functional; conditions: Homo sapiens
Jurkat = test: SAR Analysis of small molecule inhibitors of T-cell specific antigen receptor-induced NF-kB activation in a Jurkat cell line using a luminescence assay - Set 2. [Related pubchem assays (depositor defined):AID435003, AID435012, AID465]; assay type: functional, cell-based; conditions: Homo sapiens
HEK293 [23] = test: SAR Analysis of small molecule inhibitors of T-cell specific antigen receptor-induced NF-kB activation in a HEK-293T cell line using a luminescence assay - Set 2. [Related pubchem assays (depositor defined):AID435003, AID435012, AID489026]; assay type: functional, cell-based; conditions: Homo sapiens
[24] = inhibitors of HIV Env-driven cell fusion, dose response, cherry-pick (AID 652057); assay type: functional, cell-based
[25] = ZM109 Env clade C HIV-1 fusion inhibitors, dose response, HeLa effector, CEM target cells, luciferase, cherry-pick (AID 652058); assay type: functional, cell-based
[26] = off-target signal loss in HeLa-CEM21 co-culture – HeLa F-luc CTL cells, cherry-picked, counter-screen for HIV-1 Env fusion inhibitor project, dose response (AID 652040); assay type: functional, cell-based;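 further: potency for signal decrease marking cytotoxic or nonspecific inhibition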
[27] = inhibitors of clade B AD8 Env fusion, dose response, cell-based, cherry-pick (AID 652062); assay type: functional;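 further: luciferase signal from cell-cell fusion driven by HIV-1 clade B AD8 Env; potency is for inhibitors of fusion seen as a drop in luminescence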
[28] = target: T3, Microphthalmia-associated transcription factor (Homo sapiens, UniProt O75030); test: TRPM1 promoter luciferase signal decrease, dose response, MITF inhibitor project, cell-based, SK-MEL-5, cherry-picked, set 3 (AID 493073); assay type: functional
T3 sequence (O75030 whole entry): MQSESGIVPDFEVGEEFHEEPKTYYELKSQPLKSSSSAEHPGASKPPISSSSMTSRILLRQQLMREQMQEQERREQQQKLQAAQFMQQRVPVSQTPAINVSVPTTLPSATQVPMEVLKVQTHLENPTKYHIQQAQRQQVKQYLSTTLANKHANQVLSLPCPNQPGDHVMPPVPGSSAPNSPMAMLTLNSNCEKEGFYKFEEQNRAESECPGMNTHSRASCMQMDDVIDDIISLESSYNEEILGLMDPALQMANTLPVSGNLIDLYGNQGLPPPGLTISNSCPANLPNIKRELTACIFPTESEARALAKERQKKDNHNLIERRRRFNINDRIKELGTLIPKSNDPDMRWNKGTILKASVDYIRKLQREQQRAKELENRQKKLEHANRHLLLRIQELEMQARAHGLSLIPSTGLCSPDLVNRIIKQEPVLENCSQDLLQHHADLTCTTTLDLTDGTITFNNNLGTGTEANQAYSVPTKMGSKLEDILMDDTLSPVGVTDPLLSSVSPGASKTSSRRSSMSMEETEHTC

A-375 [29] = test: MITF: Counter assay: A375 proliferation Measured in Cell-Based System Using Plate Reader - 2084-03_Inhibitor_Dose_DryPowder_Activity. [Related pubchem assays (depositor defined):AID488944]; assay type: functional; conditions: Homo sapiens
A-375 [30] = test: A375 melanoma cell viability reduction, dose response, counter-screen for MITF modulator project, cherry-pick samples, set 2 (AID 540335); assay type: functional, cell-based; conditions: Homo sapiens
Hexokinase-1 = Hexokinase-1 (Homo sapiens, UniProt P19367); test: SAR analysis of small molecule inhibitors of hexokinase domain containing I (HKDC1) in the hexokinase 1 selectivity assay. [Related pubchem assays (depositor defined):AID493160, AID493190]; assay type: functional
Hexokinase HKDC1 = target: T4, Hexokinase HKDC1 (Homo sapiens, UniProt Q2TB90); test: SAR analysis of small molecule inhibitors of hexokinase domain containing I (HKDC1). [Related pubchem assays (depositor defined):AID493160, AID493190]; assay type: functional
T4 sequence (Q2TB90 whole entry): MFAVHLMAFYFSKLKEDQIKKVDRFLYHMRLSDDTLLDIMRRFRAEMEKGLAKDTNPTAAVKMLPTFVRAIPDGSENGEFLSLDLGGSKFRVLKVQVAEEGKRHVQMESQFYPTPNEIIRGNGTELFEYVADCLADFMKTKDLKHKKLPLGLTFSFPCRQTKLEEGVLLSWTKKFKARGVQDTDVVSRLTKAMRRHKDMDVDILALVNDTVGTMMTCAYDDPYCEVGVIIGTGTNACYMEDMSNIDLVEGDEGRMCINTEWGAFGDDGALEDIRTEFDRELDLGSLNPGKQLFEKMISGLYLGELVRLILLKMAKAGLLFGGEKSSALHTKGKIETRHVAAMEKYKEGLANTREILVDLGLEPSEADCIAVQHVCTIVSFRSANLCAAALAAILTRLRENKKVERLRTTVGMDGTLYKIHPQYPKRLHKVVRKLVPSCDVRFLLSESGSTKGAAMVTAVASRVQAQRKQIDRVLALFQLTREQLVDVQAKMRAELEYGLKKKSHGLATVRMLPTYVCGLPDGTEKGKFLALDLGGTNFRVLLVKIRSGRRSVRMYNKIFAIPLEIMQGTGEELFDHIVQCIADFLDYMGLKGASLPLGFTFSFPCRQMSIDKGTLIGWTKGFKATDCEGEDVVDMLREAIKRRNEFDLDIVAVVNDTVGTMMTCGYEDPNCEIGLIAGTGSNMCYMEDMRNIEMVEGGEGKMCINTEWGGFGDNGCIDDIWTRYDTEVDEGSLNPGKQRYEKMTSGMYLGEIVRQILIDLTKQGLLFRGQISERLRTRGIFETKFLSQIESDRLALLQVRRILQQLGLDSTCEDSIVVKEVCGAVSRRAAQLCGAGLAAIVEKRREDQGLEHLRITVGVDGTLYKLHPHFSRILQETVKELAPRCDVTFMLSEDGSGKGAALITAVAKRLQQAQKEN

[31] = HEp-2 cell cytotoxicity, dose response, cytotoxicity control for RSV inhibitor project, HTS (AID 2410); assay type: functional; conditions: human respiratory syncytial virus
[32] = target: Latent membrane protein 1 (Human herpesvirus 4 (strain B95-8), UniProt P03230); test: TES1-eGFP NF-kB reporter inhibition versus Tet-On dsRED, dose response, selectivity assay for LMP1 NF-kB inhibitor project, imaging, HEK293T, dual-color eGFP/dsRED, cherry-picks (AID 588398); assay type: functional, cell-based
Latent membrane protein 1, sequence (P03230 whole entry): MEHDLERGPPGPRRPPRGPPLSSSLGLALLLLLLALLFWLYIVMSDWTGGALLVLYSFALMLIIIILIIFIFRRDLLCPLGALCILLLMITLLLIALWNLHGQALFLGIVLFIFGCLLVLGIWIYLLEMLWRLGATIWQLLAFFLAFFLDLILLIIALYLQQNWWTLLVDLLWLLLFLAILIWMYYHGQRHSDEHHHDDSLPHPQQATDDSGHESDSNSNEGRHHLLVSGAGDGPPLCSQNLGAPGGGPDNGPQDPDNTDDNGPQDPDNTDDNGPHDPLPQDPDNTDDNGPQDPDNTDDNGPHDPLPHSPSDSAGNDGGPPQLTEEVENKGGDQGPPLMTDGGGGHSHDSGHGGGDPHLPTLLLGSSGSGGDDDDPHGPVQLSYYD

T1 sequence (Q12809 whole entry): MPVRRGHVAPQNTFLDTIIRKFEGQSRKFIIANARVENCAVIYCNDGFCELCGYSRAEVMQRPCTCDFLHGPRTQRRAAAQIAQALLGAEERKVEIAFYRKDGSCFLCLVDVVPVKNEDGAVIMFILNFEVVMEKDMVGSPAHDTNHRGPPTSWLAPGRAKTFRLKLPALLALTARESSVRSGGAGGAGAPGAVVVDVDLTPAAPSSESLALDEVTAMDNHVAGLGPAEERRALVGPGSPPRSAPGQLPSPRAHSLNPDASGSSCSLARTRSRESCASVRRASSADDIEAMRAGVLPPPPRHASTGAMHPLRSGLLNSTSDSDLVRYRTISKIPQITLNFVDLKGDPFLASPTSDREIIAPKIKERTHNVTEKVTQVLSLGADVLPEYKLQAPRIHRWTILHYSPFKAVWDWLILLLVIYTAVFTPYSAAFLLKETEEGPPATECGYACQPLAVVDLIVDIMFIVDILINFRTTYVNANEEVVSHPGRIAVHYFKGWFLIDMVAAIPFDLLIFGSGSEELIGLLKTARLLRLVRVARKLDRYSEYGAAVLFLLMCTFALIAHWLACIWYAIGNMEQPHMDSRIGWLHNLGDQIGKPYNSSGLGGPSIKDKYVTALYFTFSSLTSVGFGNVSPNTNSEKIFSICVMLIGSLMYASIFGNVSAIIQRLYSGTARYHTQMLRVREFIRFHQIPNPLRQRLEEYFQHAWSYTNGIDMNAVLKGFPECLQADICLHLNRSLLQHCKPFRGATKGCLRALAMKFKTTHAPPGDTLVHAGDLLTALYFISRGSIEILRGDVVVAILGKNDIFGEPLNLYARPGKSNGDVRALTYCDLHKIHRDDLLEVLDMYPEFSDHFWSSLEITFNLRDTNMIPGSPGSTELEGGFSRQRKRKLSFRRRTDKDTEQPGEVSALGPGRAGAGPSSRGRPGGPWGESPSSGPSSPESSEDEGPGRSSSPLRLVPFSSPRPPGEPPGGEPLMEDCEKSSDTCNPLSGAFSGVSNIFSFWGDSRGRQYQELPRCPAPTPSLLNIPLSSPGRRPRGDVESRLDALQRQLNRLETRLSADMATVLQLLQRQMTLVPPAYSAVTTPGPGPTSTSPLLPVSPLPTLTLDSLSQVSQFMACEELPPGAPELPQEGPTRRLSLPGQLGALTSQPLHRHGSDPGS
T2 sequence (P08659 whole entry): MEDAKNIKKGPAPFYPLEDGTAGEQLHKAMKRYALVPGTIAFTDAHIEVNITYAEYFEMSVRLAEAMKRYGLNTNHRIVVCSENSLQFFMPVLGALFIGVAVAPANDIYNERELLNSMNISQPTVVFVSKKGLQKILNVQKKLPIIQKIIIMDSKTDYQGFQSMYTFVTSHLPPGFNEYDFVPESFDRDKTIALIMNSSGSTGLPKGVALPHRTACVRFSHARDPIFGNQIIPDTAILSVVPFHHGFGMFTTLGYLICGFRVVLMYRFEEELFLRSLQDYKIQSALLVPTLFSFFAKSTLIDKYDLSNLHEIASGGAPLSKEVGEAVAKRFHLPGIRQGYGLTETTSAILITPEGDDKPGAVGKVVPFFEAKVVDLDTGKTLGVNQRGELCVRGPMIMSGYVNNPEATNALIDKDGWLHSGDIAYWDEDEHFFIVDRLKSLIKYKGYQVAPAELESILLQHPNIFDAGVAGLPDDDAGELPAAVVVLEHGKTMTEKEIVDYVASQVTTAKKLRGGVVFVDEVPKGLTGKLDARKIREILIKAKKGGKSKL
ATP-dependent molecular chaperone HSP82, sequence (C4YTQ8 whole entry): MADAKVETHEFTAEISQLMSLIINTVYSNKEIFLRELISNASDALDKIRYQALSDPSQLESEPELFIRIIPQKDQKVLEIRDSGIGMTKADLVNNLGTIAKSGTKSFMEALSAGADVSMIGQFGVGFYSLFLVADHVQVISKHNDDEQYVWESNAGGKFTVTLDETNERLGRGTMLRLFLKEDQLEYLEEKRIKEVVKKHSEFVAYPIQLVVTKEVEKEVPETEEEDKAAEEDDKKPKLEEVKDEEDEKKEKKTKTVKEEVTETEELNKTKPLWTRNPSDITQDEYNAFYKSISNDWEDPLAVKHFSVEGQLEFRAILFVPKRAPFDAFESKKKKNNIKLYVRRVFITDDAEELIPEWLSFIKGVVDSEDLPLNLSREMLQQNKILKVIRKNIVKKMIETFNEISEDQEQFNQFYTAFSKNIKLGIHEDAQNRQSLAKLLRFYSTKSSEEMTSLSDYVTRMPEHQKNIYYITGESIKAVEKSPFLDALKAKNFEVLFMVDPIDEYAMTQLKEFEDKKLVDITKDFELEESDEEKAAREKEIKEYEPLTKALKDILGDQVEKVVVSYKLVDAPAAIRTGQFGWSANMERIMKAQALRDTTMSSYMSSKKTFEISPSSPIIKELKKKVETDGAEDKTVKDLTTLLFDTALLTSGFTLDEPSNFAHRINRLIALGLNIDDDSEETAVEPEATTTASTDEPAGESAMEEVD
Acyl-homoserine lactone acylase PvdQ, sequence (Q9I194 24-193 limits assumed): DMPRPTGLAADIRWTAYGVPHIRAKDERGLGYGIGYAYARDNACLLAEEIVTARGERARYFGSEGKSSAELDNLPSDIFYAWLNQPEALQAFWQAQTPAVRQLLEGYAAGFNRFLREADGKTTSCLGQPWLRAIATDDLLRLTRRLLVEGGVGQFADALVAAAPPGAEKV
Acyl-homoserine lactone acylase PvdQ, sequence (Q9I194 217-762 limits assumed): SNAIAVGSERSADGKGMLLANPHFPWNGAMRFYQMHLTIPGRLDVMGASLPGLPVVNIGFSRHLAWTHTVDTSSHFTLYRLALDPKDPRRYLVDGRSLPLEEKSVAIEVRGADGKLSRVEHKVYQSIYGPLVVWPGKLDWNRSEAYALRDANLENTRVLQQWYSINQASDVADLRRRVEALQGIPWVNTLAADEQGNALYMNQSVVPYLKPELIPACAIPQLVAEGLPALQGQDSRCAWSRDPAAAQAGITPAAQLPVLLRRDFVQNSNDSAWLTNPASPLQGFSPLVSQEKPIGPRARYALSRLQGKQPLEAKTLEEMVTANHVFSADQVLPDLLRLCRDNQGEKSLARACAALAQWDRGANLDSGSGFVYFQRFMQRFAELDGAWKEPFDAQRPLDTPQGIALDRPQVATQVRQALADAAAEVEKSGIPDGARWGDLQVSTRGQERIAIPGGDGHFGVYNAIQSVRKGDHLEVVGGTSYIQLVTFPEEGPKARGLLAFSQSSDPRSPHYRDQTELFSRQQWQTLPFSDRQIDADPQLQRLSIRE
Hexokinase-1, sequence (P19367 whole entry, the tested form may be a part): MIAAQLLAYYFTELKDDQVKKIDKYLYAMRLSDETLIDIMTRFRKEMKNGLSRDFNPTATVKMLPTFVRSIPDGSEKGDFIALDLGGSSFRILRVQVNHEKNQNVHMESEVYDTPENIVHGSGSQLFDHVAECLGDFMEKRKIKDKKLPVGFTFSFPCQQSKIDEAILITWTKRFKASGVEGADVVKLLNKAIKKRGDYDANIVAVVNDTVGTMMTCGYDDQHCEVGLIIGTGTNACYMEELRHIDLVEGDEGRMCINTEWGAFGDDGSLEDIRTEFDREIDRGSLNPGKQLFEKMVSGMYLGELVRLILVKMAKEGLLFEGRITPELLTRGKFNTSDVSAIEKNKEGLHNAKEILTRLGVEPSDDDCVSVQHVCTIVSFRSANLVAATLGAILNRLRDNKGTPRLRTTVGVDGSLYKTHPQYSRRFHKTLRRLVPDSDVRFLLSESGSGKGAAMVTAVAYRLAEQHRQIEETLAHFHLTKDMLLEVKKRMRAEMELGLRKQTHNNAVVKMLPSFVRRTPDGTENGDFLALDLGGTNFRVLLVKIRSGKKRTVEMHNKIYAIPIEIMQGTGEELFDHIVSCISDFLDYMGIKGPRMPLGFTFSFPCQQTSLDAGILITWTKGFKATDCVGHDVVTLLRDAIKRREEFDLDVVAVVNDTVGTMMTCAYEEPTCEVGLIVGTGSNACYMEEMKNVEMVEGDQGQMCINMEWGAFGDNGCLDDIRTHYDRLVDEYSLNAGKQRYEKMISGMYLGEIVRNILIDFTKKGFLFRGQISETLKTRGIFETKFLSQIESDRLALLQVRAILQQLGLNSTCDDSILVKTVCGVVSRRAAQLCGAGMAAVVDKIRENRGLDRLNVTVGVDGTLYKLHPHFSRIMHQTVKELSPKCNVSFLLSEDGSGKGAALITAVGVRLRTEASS
Serine/threonine-protein phosphatase, sequence (B9W6M3 whole entry): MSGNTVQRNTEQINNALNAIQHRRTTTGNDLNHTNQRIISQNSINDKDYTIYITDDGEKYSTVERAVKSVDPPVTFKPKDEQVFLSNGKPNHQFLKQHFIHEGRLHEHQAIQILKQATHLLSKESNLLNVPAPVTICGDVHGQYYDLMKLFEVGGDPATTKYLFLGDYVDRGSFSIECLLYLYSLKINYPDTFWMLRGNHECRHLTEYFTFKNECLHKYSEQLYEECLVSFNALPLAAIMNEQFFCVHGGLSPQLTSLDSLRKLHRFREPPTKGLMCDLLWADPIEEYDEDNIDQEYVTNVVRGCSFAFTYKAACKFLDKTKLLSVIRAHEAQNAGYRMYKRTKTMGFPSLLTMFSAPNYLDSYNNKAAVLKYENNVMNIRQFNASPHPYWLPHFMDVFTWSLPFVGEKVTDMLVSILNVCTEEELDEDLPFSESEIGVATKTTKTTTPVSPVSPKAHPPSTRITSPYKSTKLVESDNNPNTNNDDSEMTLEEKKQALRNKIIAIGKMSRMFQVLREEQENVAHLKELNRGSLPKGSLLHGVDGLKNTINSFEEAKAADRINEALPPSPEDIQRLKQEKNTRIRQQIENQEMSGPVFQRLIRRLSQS

SMILES: COc1cc2c(cc1NC(=O)c1ccco1)CCCC2
- EC50 [1]: > 150 µM (inactive)
- EC50 [2]: 0.841 µM (active)
- EC50 [3]: > 180 µM (inactive)
- EC50 [4]: > 150 µM (inactive)

SMILES: Cl.c1ccc2c(c1)[IH]c1ccccc1-2
- Potency [5]: 35.4813 µM

SMILES: COc1ccc(C(=O)N2CCN(c3ccccn3)CC2)cc1
- AC50 (Candida albicans [6]): 15.4 µM (active)
- AC50 (Candida albicans [7]): 0.484 µM (active)

SMILES: CC(C)COC(=O)COc1cc(Cl)c(Cl)cc1Cl
- AC50 [8]: 39.8 µM (inconclusive)

SMILES: CN(Cc1ccccc1)c1ncnc2ccc(Br)cc12
- AC50 [9]: 4.49 µM (active)
- AC50 (HeLa): 115 µM (active)

SMILES: CC(C)(C)c1ccc(-c2noc(CCC(N)=O)n2)cc1
- EC50 [10]: < 0.1 µM (active)
- EC50 [11]: 0.47 µM (active)
- EC50 [12]: 16.5 µM (active)
- EC50 (HEK293 [13]): 0.443 µM (active)
- EC50 [14]: > 8 µM (not active)
- EC50 (cells): 0.517 µM (active)
- EC50 [15]: < 0.1 µM (active)
- IC50 [16]: > 39.8 µM (not active)
- EC50 (HT-1080): > 50 µM (not active)
- EC50 (HEK293 [17]): 14.9 µM (inactive)
- EC50 [18]: 0.203 µM (active)
- EC50 (HEK293 [19]): 0.528 µM (active)
- IC50 [20]: > 80 µM (inactive)
- AC50 (HEK293 [21]): 0.401 µM (active)
- IC50 (HEK293 [22]): > 80 µM (inactive)
- IC50 (Jurkat): 0.26 µM (active)
- IC50 (HEK293 [23]): 0.48 µM (active)
- AC50 [24]: 0.344 µM (active)
- AC50 [25]: < 0.26 µM (active)
- AC50 [26]: < 0.26 µM (active)
- AC50 [27]: < 0.26 µM (active)

SMILES: CCOC(=O)Cn1cc([N+](=O)[O-])nc1[N+](=O)[O-]
- AC50 [28]: 29.5 µM (active)
- AC50 (A-375 [29]): > 11 µM (active)
- AC50 (A-375 [30]): > 11 µM (active)

SMILES: O=c1c2ccccc2nc(/C=C/c2cccnc2)n1Cc1ccc(Cl)cc1
- IC50 (Hexokinase-1): > 80 µM (inactive)
- IC50 (Hexokinase HKDC1): > 80 µM (inactive)

SMILES: CCn1c2ccccc2c2cc(/C=N/n3cnnc3)ccc21
- CC50 [31]: 18.2 µM (active)
- AC50 (HEK293 [21]): 11.5 µM (active)
- AC50 [32]: 4.05 µM (active)
